Experimental data from the NIST ThermoML archive (doi:10.1016/j.fluid.2013.08.005).

Experiment: mn = molality of the nth substance listed, in mol/kg
Settings: 298.15 K, 101 kPa, Liquid; for electrical conductivity: Alternating current cell with electrodes; for mass density: Vibrating tube method

CCCCCC[N+](C)(C)C.[Br-] [hexyltrimethylammonium bromide] + O
Settings | electrical conductivity [S/m] | mass density [kg/m3]
m1 = 0.02501 | 0.446 | 997.79
m1 = 0.05001 | 0.641 | 998.57
m1 = 0.07505 | 0.99 | 999.34
m1 = 0.125 | 1.02 | 1000.88
m1 = 0.13 | 1.15 | 1001.05
m1 = 0.15 | 1.3 | 1001.64
m1 = 0.1751 | 1.72 | 1002.41
m1 = 0.25 | 1.85 | 1004.69
m1 = 0.2751 | 2.08 | 1005.39
m1 = 0.3251 | 2.2 | 1006.85
m1 = 0.3501 | 2.41 | 1007.63
m1 = 0.4001 | 2.51 | 1009.06
m1 = 0.425 | 2.79 | 1009.77
m1 = 0.5001 | 3.53 | 1011.89
m1 = 0.7503 | 3.83 | 1018.71
m1 = 0.8791 | 4.07 | 1021.99
m1 = 1 | 0.239 | 1025.02
m1 = 1.501 | – | 1036.33
m1 = 2.001 | – | 1046
